PubChem BioAssay (NCI)
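Five compound concentrations were applied to cells in 96-well plates for 48 hours; endpoints were derived by simple linear interpolation of the resulting dose-response curve. Here, GI50 denotes the concentration required for 50% inhibition of growth. Definition used: TGI = concentration required for complete inhibition of growth.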 Where a SMILES comes first, the peptide text is derived from it. [ ]: non-standard residue; d: D form. pGlu = O=C1CC[CH](C(=O)O)N1

Key:
Experiment in all cases: NCI-60 cell line screen, 48 h
U251 CNS = system: U251 CNS
PC-3 prostate = system: PC-3 prostate
MDA-MB-435 = system: MDA-MB-435
CAKI-1 renal = system: CAKI-1 renal
HS 578T breast = system: HS 578T breast
UO-31 renal = system: UO-31 renal
K-562 leukemia = system: K-562 leukemia
MDA-MB-231 breast = system: MDA-MB-231 breast
M14 melanoma = system: M14 melanoma
OVCAR-3 ovarian = system: OVCAR-3 ovarian

Row | SMILES | GI50 (U251 CNS) [µM] | TGI (U251 CNS) [µM] | GI50 (PC-3 prostate) [µM] | TGI (PC-3 prostate) [µM] | GI50 (MDA-MB-435) [µM] | TGI (MDA-MB-435) [µM] | GI50 (CAKI-1 renal) [µM] | TGI (CAKI-1 renal) [µM] | GI50 (HS 578T breast) [µM] | TGI (HS 578T breast) [µM] | GI50 (UO-31 renal) [µM] | TGI (UO-31 renal) [µM] | GI50 (K-562 leukemia) [µM] | TGI (K-562 leukemia) [µM] | GI50 (MDA-MB-231 breast) [µM] | TGI (MDA-MB-231 breast) [µM] | GI50 (M14 melanoma) [µM] | TGI (M14 melanoma) [µM] | GI50 (OVCAR-3 ovarian) [µM] | TGI (OVCAR-3 ovarian) [µM]
1 | O=c1[nH]c(=O)c2cn[nH]c2[nH]1 | > 100 | > 100 | > 100 | > 100 | > 100 | > 100 | > 100 | > 100 | > 100 | > 100 | > 100 | > 100 | > 100 | > 100 | > 100 | > 100 | > 100 | > 100 | > 100 | > 100
2 | N#CC1(C#N)C2(c3ccccc3)OC(c3ccccc3)(c3cc4ccccc4cc32)C1(C#N)C#N | – | 35.9 | – | 32.9 | – | 31.7 | – | 24.1 | – | 72.2 | – | 26.5 | – | 8.18 | – | 31.9 | – | 31.6 | – | 28.5
3 | O=c1[nH]nnc2c1ncn2C1OC(CO)C(O)C1O (stereo not given) | 41.5 | > 100 | 2.93 | > 100 | 14.2 | > 100 | 0.998 | 32.5 | > 100 | > 100 | 3.18 | > 100 | 2.26 | > 100 | 4.91 | 76.9 | 3.57 | > 100 | 7.75 | > 100
4 | CCCCON(OC(=O)c1ccc2ccccc2c1)C(=O)c1ccccc1 | > 100 | > 100 | > 100 | > 100 | > 100 | > 100 | > 100 | > 100 | > 100 | > 100 | 53.1 | > 100 | 41.7 | > 100 | > 100 | > 100 | > 100 | > 100 | > 100 | > 100
5 | O=C1C(Cl)=C(Nc2cccc(Cl)c2)C(=O)N1Cc1ccc(Cl)cc1 | 0.312 | 14.2 | 1.32 | 11.9 | 0.396 | 2.91 | 0.919 | 13.9 | 0.913 | 11.1 | 1.74 | 24.5 | 0.858 | > 94.1 | 0.216 | 1.22 | 2.11 | 9.94 | 0.784 | 6.24
6 | CC(C)Cn1cnc2c(SCc3ccc(Cl)cc3Cl)nc(N)nc21 | – | > 100 | – | > 100 | – | > 100 | – | > 100 | – | > 100 | – | > 100 | – | > 100 | – | > 100 | – | > 100 | – | > 100
7 | CCNC(=O)C1CCCN1C(=O)C(CCCN=C(N)N)NC(=O)C(CC(C)C)NC(=O)C(CC(C)C)NC(=O)C(Cc1ccc(O)cc1)NC(=O)C(CO)NC(=O)C(Cc1c[nH]c2ccccc12)NC(=O)C(Cc1cnc[nH]1)NC(=O)C1CCC(=O)N1 (stereo not given) ([pGlu]HWSYLLRP-NHEt; configuration not given here) | > 100 | > 100 | > 100 | > 100 | > 100 | > 100 | > 100 | > 100 | > 100 | > 100 | > 100 | > 100 | > 100 | > 100 | > 100 | > 100 | > 100 | > 100 | > 100 | > 100
8 | Oc1c(-c2nnc(-c3ccccc3Cl)o2)sc2nnc(-c3ccccc3)c(-c3ccccc3)c12 | 2.31 | > 100 | 3.15 | > 100 | 4.26 | > 100 | 0.501 | 24.6 | 3.78 | > 100 | 2.38 | 8.4 | 3.28 | > 100 | 4.08 | 40.1 | 5 | 39.3 | 2.64 | 8
9 | C/C=C(\C)C(=O)NC1=CC[C@@]2(C)C(=CCC3C2CC[C@@]2(C)C3CC[C@@H]2C(C)N(C)C)C1=O (stereo not given in full) | 4.34 | 23.3 | 2.5 | 17.7 | 2.35 | 7.08 | 2.86 | 11.4 | 4.65 | 23.2 | 1.44 | 3.02 | 0.451 | 2.86 | 3.14 | 9.99 | 1.81 | 3.44 | 2.5 | 12.8
10 | O=C(O)CN(CC(=O)O)Cc1cc(C#Cc2ccc(C#Cc3ccccc3)cc2)cc(CN(CC(=O)O)CC(=O)O)n1 | – | 57.6 | – | 60.9 | – | > 100 | – | 61.9 | – | > 100 | – | > 79.7 | – | > 67.5 | – | 43 | – | > 76.6 | – | > 39.9
11 | O=C(CCCCCCNC(=O)c1cnc(N(c2ccccc2)c2ccccc2)nc1)NO | 3 | 15.6 | 4.87 | > 100 | 2.04 | > 36.8 | 6.38 | 43.3 | 2.54 | > 100 | 4.63 | 36.6 | 2.47 | > 100 | 2.99 | 14.7 | 3.57 | > 100 | 2.71 | 15.3
12 | CC(=O)NC1C(OC[C@@H](CC(=O)N[C@@H](CC(=O)O)CC(=O)N[C@H](CC(=O)N[C@@H](CCCN)CC(=O)N[C@@H](CCCN)CC(=O)N[C@H](CC(N)=O)C(C)C)C(C)C)NC(=O)C[C@@H](N)C(C)C)OC(CO)C(O)C1O (stereo not given in full) | > 100 | > 100 | > 100 | > 100 | > 100 | > 100 | > 100 | > 100 | > 100 | > 100 | > 100 | > 100 | > 100 | > 100 | > 100 | > 100 | > 100 | > 100 | > 100 | > 100
13 | ClCc1cccc2c(CCl)cccc12 | 2.89 | 11.6 | 4.21 | 19.7 | 4.28 | 18.7 | 1.48 | 4.28 | 1.86 | 6.7 | 2.2 | 8.87 | 10.5 | > 100 | 13 | 39 | 5.95 | 23.4 | 1.76 | 3.83
